From ChEMBL document CHEMBL1201862, “PubChem BioAssay data set” (2004)
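Grown in 96-well plates, cells were treated for 48 hours with each compound at five concentrations. Insufficient inhibition: endpoint recorded as highest concentration tested. GI50: concentration for 50% inhibition of growth.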 Calls of active or inactive are those of the source. Rule as the data show it: active = GI50 up to about 1.1 µM and inactive = higher.

Tests used:
Experiment in all cases: NCI tumour cell line growth inhibition, 48 h
DLD-1 = tested on: DLD-1
EKVX = tested on: EKVX
SF-539 = tested on: SF-539
A498 = tested on: A498
NCI-H460 = tested on: NCI-H460
OVCAR-3 = tested on: OVCAR-3
A549 = tested on: A549
HT-29 = tested on: HT-29
CCRF-CEM = tested on: CCRF-CEM
U-251 = tested on: U-251
SF-268 = tested on: SF-268
SK-MEL-28 = tested on: SK-MEL-28
HCT-15 = tested on: HCT-15
SK-MEL-5 = tested on: SK-MEL-5
DU-145 = tested on: DU-145
HL-60 = tested on: HL-60
PC-3 = tested on: PC-3
Hs-578T = tested on: Hs-578T
MDA-MB-435 = tested on: MDA-MB-435
NCI/ADR-RES = tested on: NCI/ADR-RES

COc1ccc(-c2cc(C(=O)Nc3ccc(C)c(C)c3)nc(NC#N)n2)cc1
GI50 (DLD-1): > 100 µM (inactive)
GI50 (EKVX): > 100 µM (inactive)
GI50 (SF-539): > 100 µM (inactive)
GI50 (A498): > 100 µM (inactive)
GI50 (NCI-H460): > 100 µM (inactive)
GI50 (OVCAR-3): > 100 µM (inactive)
GI50 (A549): > 100 µM (inactive)
GI50 (HT-29): > 100 µM (inactive)
GI50 (CCRF-CEM): > 100 µM (inactive)
GI50 (U-251): > 100 µM (inactive)
GI50 (SF-268): > 100 µM (inactive)
GI50 (SK-MEL-28): > 100 µM (inactive)
GI50 (HCT-15): > 100 µM
GI50 (SK-MEL-5): > 100 µM (inactive)

COc1cc2c(c(OC)c1OC)-c1ccc(=O)c(O)cc1[C@@H](NC(C)=O)CC2 [COLCHICEINE]
GI50 (DU-145): 27.6 µM (inactive)
GI50 (EKVX): 19.7 µM (inactive)
GI50 (SF-539): 19.1 µM (inactive)
GI50 (A498): 18.4 µM (inactive)
GI50 (HL-60): 4.99 µM (inactive)
GI50 (PC-3): 17.8 µM (inactive)
GI50 (NCI-H460): 12.3 µM (inactive)
GI50 (OVCAR-3): 29.6 µM (inactive)
GI50 (A549): 27.7 µM (inactive)
GI50 (HT-29): 16.1 µM (inactive)
GI50 (CCRF-CEM): 11.9 µM (inactive)
GI50 (U-251): 15.7 µM (inactive)
GI50 (Hs-578T): 21.3 µM (inactive)
GI50 (SF-268): 25.7 µM (inactive)
GI50 (SK-MEL-28): 42.5 µM (inactive)
GI50 (HCT-15): 10.7 µM
GI50 (MDA-MB-435): 18.4 µM (inactive)
GI50 (SK-MEL-5): 7.66 µM (inactive)
GI50 (NCI/ADR-RES): 6.98 µM (inactive)

O=C(/C=C/c1cc2ccccc2o1)N1CCN(c2ccccn2)CC1
GI50 (DU-145): > 100 µM (inactive)
GI50 (EKVX): 95.5 µM (inactive)
GI50 (SF-539): > 100 µM (inactive)
GI50 (A498): > 100 µM (inactive)
GI50 (HL-60): 40.7 µM (inactive)
GI50 (PC-3): 50.4 µM (inactive)
GI50 (NCI-H460): 91.6 µM (inactive)
GI50 (OVCAR-3): 62.7 µM (inactive)
GI50 (A549): > 100 µM (inactive)
GI50 (HT-29): 68.7 µM (inactive)
GI50 (CCRF-CEM): > 100 µM (inactive)
GI50 (U-251): > 100 µM (inactive)
GI50 (Hs-578T): > 100 µM (inactive)
GI50 (SF-268): > 100 µM (inactive)
GI50 (SK-MEL-28): 35.9 µM (inactive)
GI50 (HCT-15): 74.6 µM
GI50 (MDA-MB-435): > 100 µM (inactive)
GI50 (SK-MEL-5): > 100 µM (inactive)
GI50 (NCI/ADR-RES): 60.7 µM (inactive)

COc1ccc(/C(=N/N=c2[nH]c3ccccc3[nH]2)C(=O)O)cc1
GI50 (DU-145): > 100 µM (inactive)
GI50 (EKVX): > 100 µM (inactive)
GI50 (SF-539): > 100 µM (inactive)
GI50 (A498): > 100 µM (inactive)
GI50 (HL-60): > 100 µM (inactive)
GI50 (PC-3): > 100 µM (inactive)
GI50 (NCI-H460): > 100 µM (inactive)
GI50 (OVCAR-3): > 100 µM (inactive)
GI50 (A549): > 100 µM (inactive)
GI50 (HT-29): > 100 µM (inactive)
GI50 (CCRF-CEM): > 100 µM (inactive)
GI50 (U-251): > 100 µM (inactive)
GI50 (Hs-578T): > 100 µM (inactive)
GI50 (SF-268): > 100 µM (inactive)
GI50 (SK-MEL-28): > 100 µM (inactive)
GI50 (HCT-15): > 100 µM
GI50 (MDA-MB-435): > 100 µM (inactive)
GI50 (SK-MEL-5): > 100 µM (inactive)
GI50 (NCI/ADR-RES): > 100 µM (inactive)

N#Cc1c(N2CCCC2)ncn(Cc2ccccc2)c1=O
GI50 (DU-145): > 100 µM (inactive)
GI50 (EKVX): > 100 µM (inactive)
GI50 (SF-539): > 100 µM (inactive)
GI50 (A498): > 100 µM (inactive)
GI50 (HL-60): > 100 µM (inactive)
GI50 (PC-3): > 100 µM (inactive)
GI50 (NCI-H460): > 100 µM (inactive)
GI50 (OVCAR-3): > 100 µM (inactive)
GI50 (A549): > 100 µM (inactive)
GI50 (HT-29): > 100 µM (inactive)
GI50 (CCRF-CEM): > 100 µM (inactive)
GI50 (U-251): > 100 µM (inactive)
GI50 (Hs-578T): > 100 µM (inactive)
GI50 (SF-268): > 100 µM (inactive)
GI50 (SK-MEL-28): > 100 µM (inactive)
GI50 (HCT-15): > 100 µM
GI50 (MDA-MB-435): > 100 µM (inactive)
GI50 (SK-MEL-5): > 100 µM (inactive)
GI50 (NCI/ADR-RES): > 100 µM (inactive)

O=[N+]([O-])/C(Cl)=C(/C(Cl)=C(Cl)Cl)N1CCCCC1
GI50 (DU-145): 14 µM (inactive)
GI50 (EKVX): 20.3 µM (inactive)
GI50 (SF-539): 16.4 µM (inactive)
GI50 (A498): 18.4 µM (inactive)
GI50 (HL-60): 2.64 µM (inactive)
GI50 (PC-3): 18.8 µM (inactive)
GI50 (NCI-H460): 18.7 µM (inactive)
GI50 (OVCAR-3): 10.8 µM (inactive)
GI50 (A549): 12.6 µM (inactive)
GI50 (HT-29): 14.9 µM (inactive)
GI50 (CCRF-CEM): 4.73 µM (inactive)
GI50 (U-251): 11.8 µM (inactive)
GI50 (Hs-578T): 5.06 µM (inactive)
GI50 (SF-268): 11.9 µM (inactive)
GI50 (SK-MEL-28): 14.5 µM (inactive)
GI50 (HCT-15): 4.36 µM
GI50 (MDA-MB-435): 8.81 µM (inactive)
GI50 (SK-MEL-5): 6.44 µM (inactive)
GI50 (NCI/ADR-RES): 4.06 µM (inactive)

N#Cc1cccc(-n2[nH]c(=O)ccc2=O)c1
GI50 (DLD-1): > 100 µM (inactive)
GI50 (SF-539): > 100 µM (inactive)
GI50 (HL-60): > 100 µM (inactive)
GI50 (NCI-H460): > 100 µM (inactive)
GI50 (OVCAR-3): > 100 µM (inactive)
GI50 (A549): > 100 µM (inactive)
GI50 (HT-29): > 100 µM (inactive)
GI50 (CCRF-CEM): > 100 µM (inactive)
GI50 (U-251): > 100 µM (inactive)
GI50 (SF-268): > 100 µM (inactive)
GI50 (SK-MEL-28): > 100 µM (inactive)
GI50 (HCT-15): > 100 µM
GI50 (SK-MEL-5): > 100 µM (inactive)

O=C(O)C1C(C(=O)O)C2C(=O)C=CC1N2Cc1ccccc1 (stereo unspecified)
GI50 (DU-145): 1.99 µM (inactive)
GI50 (EKVX): 3.06 µM (inactive)
GI50 (SF-539): 2.8 µM (inactive)
GI50 (A498): 20.3 µM (inactive)
GI50 (HL-60): 1.77 µM (inactive)
GI50 (PC-3): 5.58 µM (inactive)
GI50 (NCI-H460): 1.98 µM (inactive)
GI50 (OVCAR-3): 2.87 µM (inactive)
GI50 (A549): 6.71 µM (inactive)
GI50 (HT-29): 3.12 µM (inactive)
GI50 (CCRF-CEM): 0.383 µM (active)
GI50 (U-251): 3.52 µM (inactive)
GI50 (Hs-578T): 2.82 µM (inactive)
GI50 (SF-268): 3.24 µM (inactive)
GI50 (SK-MEL-28): 4.29 µM (inactive)
GI50 (HCT-15): 2.46 µM
GI50 (MDA-MB-435): 3.66 µM (inactive)
GI50 (SK-MEL-5): 5.32 µM (inactive)
GI50 (NCI/ADR-RES): 2.3 µM (inactive)
